Patent EP1902732A1, “PROPHYLACTIC/THERAPEUTIC AGENT FOR HER2-EXPRESSING CANCER” (Takeda Pharmaceutical Company Limited, priority 2005, dated 2006)

Key:
HER2 [1] = experiment: Western blotting of phosphorylated HER2 in SK-BR-3 cells; type: cell-based, human; conditions: Example 4, medium glucose 0.1 mg/mL, 5 mg/mL, two hours
Experimental: (§1) HER2-expressing human cancer cell line SK-BR-3 (purchased from ATCC) was seeded into a 24-multiwell plate (4.0 x 10^5 cells/well) and cultured overnight in a carbon dioxide gas incubator (5% CO2, 37°C). Then, the medium was exchanged for a medium with a glucose content of 0.1 mg/mL and cultured for another 2 hours. A glucose antimetabolite 2-deoxyglucose was added to a final concentration of 5 mg/mL. Two hours later, the broth was removed and the cells were lysed with an SDS sample buffer (200 µL). This cell lysate (8 µL) was separated by an SDS-PAGE method (gel concentration: 7.5-15%) (Shagger et al., Analytical Biochemistry, No. 166, pp. 368-379, 1987). Then, western blotting analysis was performed in the same manner as in Example 1 to detect phosphorylated HER2, phosphorylated Akt and phosphorylated MAPK.

MAPK [2] = experiment: Western blotting of phosphorylated MAPK in SK-BR-3 cells; type: cell-based, human; conditions: Example 4, medium glucose 0.1 mg/mL, 5 mg/mL, two hours
Experimental: as §1

Akt [3] = experiment: Western blotting of phosphorylated Akt in SK-BR-3 cells; type: cell-based, human; conditions: Example 4, medium glucose 0.1 mg/mL, 5 mg/mL, two hours
Experimental: as §1

[4] = system: MDA-MB-453 breast cancer cell; experiment: Viable cell count using Cell Counting Kit-F; type: cell-based, human; conditions: five days of culture
Experimental: (§2) BT-474 breast cancer cell, MDA-MB-453 breast cancer cell, A549 non-small cell lung cancer cell and LNCaP prostate cancer cell were used as human HER2-expressing cells while MDA-MB-231 breast cancer cell and A498 kidney cancer cell (all purchased from ATCC) were used as HER2-nonexpressing cells. Each of the cells used had been seeded into a 96-plate at 500cells/150 µL/well and cultured overnight. Each of the compounds, i.e., antimycin (final concentrations: 1, 0.1, 0.01 and 0.001 µmol/L), 2,4-dinitrophenol (final concentrations: 0.6, 0.2, 0.06 and 0.02 mmol/L), metformin (final concentrations: 25, 5, 1 and 0.2 mmol/L) and AICAR (final concentrations: 25, 5, 1 and 0.2 mmol/L) was diluted with a medium and added for 50 µL/well at a time to the final concentrations mentioned above. Following five days of culture at 37°C in 5% CO2, the cells were counted using Cell Counting Kit-F (Dojindo Laboratories).
(§3) Viable cell count using Cell Counting Kit-F was carried out by the following method according to the attached instruction. The supernatant was removed from the 96-well plate after five days of culture. Cell Counting Kit-F diluted 1000-fold with an RPMI medium (phenol red-free, serum-free) was added for 100 µL/well at a time. After 30 minutes of reaction at room temperature, fluorescence (excitation wavelength; 480 nm, fluorescent wavelength; 530 nm) was determined with a fluorescent plate reader.
(§4) From the determination results, percentage of the fluorescence level in the wells added with the compound was determined assuming that the fluorescence level in the wells without the addition of the compound (control) is 100%, and the remaining cellular quantity was determined in % with respect to that of the control.
(§5) BT-474 breast cancer cell, MDA-MB-453 breast cancer cell and LNCaP prostate cancer cell were used as human HER2-expressing cells while MDA-MB-231 breast cancer cell and A498 kidney cancer cell (all purchased from ATCC) were used as HER2-nonexpressing cells. Each of the cells used had been seeded into a 96-well plate at 500 cells/150 µL/well and cultured overnight. Troglitazone (final concentrations: 25, 6.25 and 1.56 µmol/L) was diluted with a medium, and added for 50 µL/well at a time to the final concentrations mentioned above. Following five days of culture at 37°C in 5% CO2, the cells were counted using Cell Counting Kit-F (Dojindo Laboratories).
as §4, with “troglitazone” for “the compound”

[5] = system: LNCaP prostate cancer cell; experiment: Viable cell count using Cell Counting Kit-F; type: cell-based, human; conditions: five days of culture
Experimental: as §2, §3, §4, §5
as §4, with “troglitazone” for “the compound”

[6] = system: BT-474 breast cancer cell; experiment: Viable cell count using Cell Counting Kit-F; type: cell-based, human; conditions: five days of culture
Experimental: as §2, §3, §4, §5
as §4, with “troglitazone” for “the compound”

DU145 = experiment: Viable cell count using Cell Counting Kit-F; type: cell-based; conditions: HER2-nonexpressing cancer, five days of culture
HER2 [7] = experiment: Western blotting of phosphorylated HER2 in BT-474 cells; type: cell-based, human
Experimental: (§6) Human HER2-expressing human breast cancer cell line BT-474 (purchased from American Tissue Culture Collection (ATCC)) was seeded into a 24-multiwell plate (BT-474: 1.2 x 10^5 cells/well), and cultured overnight in a carbon dioxide gas incubator (5% CO2, 37°C). A 4-fold dilution series of a mitochondrial respiratory chain complex inhibiting compound (complex I: rotenone, complex III: antimycin, complex V: oligomycin: Wako Pure Chemical Industries) was added starting from a final concentration of 1 µmol/L in 5 steps while continuing culture. After 2 hours, the broth was removed, and the cells were lysed with an SDS sample buffer (200 µL). Western blotting analysis was performed as follows. Specifically, this cell lysate (8 µL) was separated by an SDS-PAGE method (gel concentration: 7.5-15%) (Analytical Biochemistry, No. 166, pp. 368-379, 1987), and transferred to a nitrocellulose membrane (BioRad). Then, an antibody specific to phosphorylated HER2 (Cell signaling technology, Code# 2244), an anti-phosphorylated Akt antibody specific to downstream antiapoptotic signal transducing molecule Akt (Cell signaling technology, Code# 9271) and an anti-phosphorylated MAPK antibody specific to downstream proliferation signal transducing molecule MAPK (Cell signaling technology, Code# 9101) were used to detect the antibody with an ECL system (Amersham) to quantify the amount of phosphorylated protein by an image analysis.
(§7) Human HER2-expressing human cancer cell line BT-474 (purchased from ATCC) was seeded into a 24-multiwell plate (1.2 x 10^5 cells/well) and cultured overnight in a carbon dioxide gas incubator (20% O2, 5% CO2, 37°C). A 3-fold dilution series of metformin that activates AMPK (The Journal of Biological Chemistry, Vol. 279, No. 42, pp. 43940-43951, 2004) was added starting from a final concentration of 15 mmol/L in 5 steps while continuing culture. Two hours later, the broth was removed and the cells were lysed with an SDS sample buffer (200 µL). This cell lysate (8 µL) was separated by an SDS-PAGE method (gel concentration: 7.5-15%) (Analytical Biochemistry, No. 166, pp. 368-379, 1987). Then, western blotting analysis was performed in the same manner as in Example 1 to quantify phosphorylated HER2, phosphorylated Akt and phosphorylated MAPK.
Human HER2-expressing human breast cancer cell line BT-474 (purchased from American Tissue Culture Collection (ATCC)) was seeded into a 24-multiwell plate (BT-474: 1.2 x 10^5 cells/well), and cultured overnight in a carbon dioxide gas incubator (5% CO2, 37°C). Mitochondrial respiratory chain complex 1-inhibiting compound rotenone (Wako Pure Chemical Industries) was added in 5 steps at final concentrations of 1, 0.333, 0.111, 0.033 and 0.011 µmol/L while continuing culture. Two hours later, the broth was removed and the cells were lysed with an SDS sample buffer (200 µL). Then, this cell lysate was used to perform western blotting analysis. Specifically, this cell lysate (8 µL) was separated by an SDS-PAGE method (gel concentration: 7.5-15%) (Analytical Biochemistry, No. 166, pp. 368-379, 1987) and transferred to a nitrocellulose membrane (BioRad). Then, an antibody specific to phosphorylated HER2 (Cell signaling technology, Code# 2244), an AMPK antibody specific to AMPK (Cell signaling technology, Code# 2535) and an anti-phosphorylated AMPK antibody specific to phosphorylated AMPK (Cell signaling technology, Code# 2532) were used to detect the antibody by chemiluminescent detection with an ECL system (Amersham) to quantify an amount of phosphorylated protein with LAS-1000 plus image analysis device (FUJIFILM).
Human HER2-expressing human breast cancer cell line BT-474 (purchased from American Tissue Culture Collection (ATCC)) was seeded into a 24-multiwell plate (BT-474: 1.2 x 10^5 cells/well) and cultured overnight in a carbon dioxide gas incubator (5% CO2, 37°C). […]

[8] = system: A549 non-small cell lung cancer cell; experiment: Viable cell count using Cell Counting Kit-F; type: cell-based, human; conditions: HER2-expressing cancer, five days of culture
Experimental: as §2, §3, §4

A498 kidney cancer cell = experiment: Viable cell count using Cell Counting Kit-F; type: cell-based; conditions: five days of culture
Experimental: as §2, §3, §4, §5
as §4, with “troglitazone” for “the compound”

[9] = system: MDA-MB-231 breast cancer cell; experiment: Viable cell count using Cell Counting Kit-F; type: cell-based; conditions: five days of culture
Experimental: as §2, §3, §4, §5
as §4, with “troglitazone” for “the compound”

Akt [10] = experiment: Western blotting of phosphorylated Akt in BT-474 cells; type: cell-based, human
Experimental: as §6, §7

MAPK [11] = experiment: Western blotting of phosphorylated MAPK in BT-474 cells; type: cell-based, human
Experimental: as §6, §7

[12] = system: phosphorylated S6 kinase (S6K); experiment: Western blotting of phosphorylated S6K in BT-474 cells; type: cell-based, human; conditions: Example 7, two hours, antimycin 1-0.01 nmol/L, oligomycin 100-1 ng/mL, 2,4-dinitrophenol 300-3 µmol/L
Experimental: (§8) Human HER2-expressing human breast cancer cell line BT-474 (purchased from American Tissue Culture Collection (ATCC)) was seeded into a 24-multiwell plate (BT-474: 1.2 x 10^5 cells/well) and cultured overnight in a carbon dioxide gas incubator (5% CO2, 37°C). As an energy metabolism inhibitor having a mechanism that differed from that of rotenone, mitochondrial respiratory chain complex III-inhibiting compound antimycin (Wako Pure Chemical Industries) was added to final concentrations of 1, 0.3, 0.1, 0.03 and 0.01 nmol/L while continuing culture. Using another plate, mitochondrial respiratory chain complex V-inhibiting compound oligomycin (Wako Pure Chemical Industries) was added to final concentrations of 100, 30, 10, 3 and 1 ng/mL while continuing culture. In addition, 2,4-dinitrophenol was added to 300, 100, 30, 10 and 3 µmol/L while continuing culture. Two hours after the addition of the agent, the broth was removed and the cells were lysed with an SDS sample buffer (200 µL). Then, this cell lysate was used to perform western blotting analysis. Specifically, this cell lysate (8 µL) was separated by an SDS-PAGE method (gel concentration: 7.5-15%) (Analytical Biochemistry, No. 166, pp. 368-379, 1987) and transferred onto a nitrocellulose membrane (BioRad). Then, an antibody specific to phosphorylated HER2 (Cell signaling technology, Code# 2244), pACC antibody specific to phosphorylated acetyl-CoA carboxylase (ACC) (Cell signaling technology, Code# 3661) and anti-phosphorylated S6K antibody specific to phosphorylated S6 kinase (S6K) (Cell signaling technology, Code# 9209) were used to detect the antibody by chemiluminescent detection with an ECL system (Amersham) to quantify an amount of phosphorylated protein with LAS-1000 plus image analysis device (FUJIFILM).

[13] = system: phosphorylated acetyl-CoA carboxylase (ACC); experiment: Western blotting of phosphorylated ACC in BT-474 cells; type: cell-based, human; conditions: Example 7, two hours, antimycin 1-0.01 nmol/L, oligomycin 100-1 ng/mL, 2,4-dinitrophenol 300-3 µmol/L
Experimental: as §8

[14] = Example 5, 3-fold dilution series from 15 mmol/L in 5 steps, two hours
[15] = Example 2, 4-fold dilution series from 1 µmol/L in 5 steps, 2 hours

SMILES: O=CC[C@@H](O)[C@H](O)[C@H](O)CO [2-deoxyglucose]
- HER2 phosphorylation (HER2 [1]): suppressed phosphorylation of each protein
- MAPK phosphorylation (MAPK [2]): suppressed phosphorylation of each protein
- Akt phosphorylation (Akt [3]): suppressed phosphorylation of each protein

SMILES: CN(C)C(=N)N=C(N)N [metformin]
- minimum concentrations for inhibiting cell proliferation for 50% or more ([4]; MB453, HER2-expressing cancer): 1 mmol/L
- minimum concentrations for inhibiting cell proliferation for 50% or more ([5]; LNCaP, HER2-expressing cancer): 1 mmol/L
- minimum concentrations for inhibiting cell proliferation for 50% or more ([6]; BT474, HER2-expressing cancer): 1 mmol/L
- minimum concentrations for inhibiting cell proliferation for 50% or more (DU145): >25 mmol/L
- HER2 phosphorylation (HER2 [7]; [14]): concentration-dependent suppression of HER2 phosphorylation
- minimum concentrations for inhibiting cell proliferation for 50% or more [8]: 5 mmol/L
- minimum concentrations for inhibiting cell proliferation for 50% or more (A498 kidney cancer cell; A498, HER2-nonexpressing cancer): >25 mmol/L
- minimum concentrations for inhibiting cell proliferation for 50% or more ([9]; MB231, HER2-nonexpressing cancer): >25 mmol/L
- Akt phosphorylation (Akt [10]; [14]): suppressions of Akt and MAPK phosphorylations were also confirmed
- MAPK phosphorylation (MAPK [11]; [14]): suppressions of Akt and MAPK phosphorylations were also confirmed

SMILES: CC[C@H]1/C=C/C=C/C[C@@H](C)[C@H](O)[C@@](C)(O)C(=O)[C@@H](C)[C@H](O)[C@@H](C)C(=O)[C@@H](C)[C@H](O)[C@@H](C)/C=C/C(=O)O[C@@H]2[C@H](C)[C@H](CC1)O[C@]1(CC[C@H](C)[C@H](C[C@@H](C)O)O1)[C@H]2C [oligomycin]
- phosphorylation of S6K [12]: suppressed
- HER2 phosphorylation (HER2 [7]; [15]): suppression of HER2 phosphorylation was confirmed
- HER2 phosphorylation (HER2 [7]; Example 7, two hours, antimycin 1-0.01 nmol/L, oligomycin 100-1 ng/mL, 2,4-dinitrophenol 300-3 µmol/L): decreased dose-dependently
- phosphorylation of ACC [13]: increased dose-dependently
- Akt phosphorylation (Akt [10]; [15]): suppressions of Akt and MAPK phosphorylations were also confirmed
- MAPK phosphorylation (MAPK [11]; [15]): suppressions of Akt and MAPK phosphorylations were also confirmed

SMILES: Cc1c(C)c2c(c(C)c1O)CCC(C)(COc1ccc(CC3SC(=O)NC3=O)cc1)O2 (stereo not drawn) [troglitazone]
- inhibition at 25 µM ([4]; Homo sapiens, MDA-MB-453, 120 h, MB453 cell, 25 µmol/L, read-out: proliferation inhibited to (remaining cellular quantity in % with respect to that of the control)): 25%
- inhibition at 25 µM ([5]; Homo sapiens, 120 h, LNCaP cell, 25 µmol/L, read-out: proliferation inhibited to (remaining cellular quantity in % with respect to that of the control)): 48%
- inhibition at 25 µM ([6]; Homo sapiens, BT-474, 120 h, BT474 cell, 25 µmol/L, read-out: proliferation inhibited to (remaining cellular quantity in % with respect to that of the control)): 50%
- inhibition at 25 µM (A498 kidney cancer cell; Homo sapiens, 120 h, A498 cell, HER2-nonexpressing, 25 µmol/L, read-out: proliferation inhibited to (remaining cellular quantity in % with respect to that of the control)): 105%
- inhibition at 25 µM ([9]; Homo sapiens, 120 h, MDA-MB-231 cell, HER2-nonexpressing, 25 µmol/L, read-out: proliferation inhibited to (remaining cellular quantity in % with respect to that of the control)): 100%
